{"source": "patent US20230339878A1", "about": "“SLC26A3 INHIBITORS AND USE THEREOF” (THE REGENTS OF THE UNIVERSITY OF CALIFORNIA, priority 2018, published 2023)", "key": {"murine slc26a3": {"target": "T1, murine slc26a3 (Mus musculus, UniProt Q9WVC8)", "T1 construct": "host or cells: Fischer rat thyroid (FRT) cells expressing YFP, clonal line FRT-YFP-slc26a3", "T1 sequence (Q9WVC8 1-757)": "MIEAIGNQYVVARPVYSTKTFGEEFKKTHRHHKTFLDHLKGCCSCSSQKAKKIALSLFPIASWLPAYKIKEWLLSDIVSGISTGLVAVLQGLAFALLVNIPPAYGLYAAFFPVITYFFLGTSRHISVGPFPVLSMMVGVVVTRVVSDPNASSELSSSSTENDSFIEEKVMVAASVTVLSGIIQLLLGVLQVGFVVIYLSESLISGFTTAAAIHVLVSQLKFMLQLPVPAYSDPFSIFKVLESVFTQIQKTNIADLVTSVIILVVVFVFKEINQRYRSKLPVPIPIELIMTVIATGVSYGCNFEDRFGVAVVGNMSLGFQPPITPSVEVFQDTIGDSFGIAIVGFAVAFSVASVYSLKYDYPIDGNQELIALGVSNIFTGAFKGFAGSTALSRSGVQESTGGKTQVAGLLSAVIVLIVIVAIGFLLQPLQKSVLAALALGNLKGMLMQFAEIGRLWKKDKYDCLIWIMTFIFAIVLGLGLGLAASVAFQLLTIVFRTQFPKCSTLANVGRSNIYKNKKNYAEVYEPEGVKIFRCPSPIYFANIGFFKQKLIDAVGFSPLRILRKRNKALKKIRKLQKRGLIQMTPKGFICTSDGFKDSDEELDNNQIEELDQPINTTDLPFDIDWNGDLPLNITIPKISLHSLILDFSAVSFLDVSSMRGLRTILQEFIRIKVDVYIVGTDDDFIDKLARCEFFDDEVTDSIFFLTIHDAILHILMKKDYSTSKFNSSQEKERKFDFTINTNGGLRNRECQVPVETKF", "test": "slc26a3-mediated Cl-/I- exchange, YFP fluorescence quenching in FRT-YFP-slc26a3 cells", "assay_type": "cell-based", "procedure": "High-throughput screening to identify slc26a3 inhibitors using FRT-YFP- slc26a3 cells was done with a semi-automated Beckman Coulter (Indianapolis, IN) platform with FLUOstar OMEGA plate readers (BMG Labtech, Cary, NC), essentially as described for discovery of pendrin inhibitors. Initial screening was done of ~50,000 drug-like synthetic small molecules (ChemDiv, San Diego, CA) at a concentration of 25 µM using a Cl^-/I^- exchange protocol to assay slc26a3 function. Following initial screening, compound analogs were purchased (ChemDiv, San Diego, CA) to generate structure-activity data.\nFor the screening, FRT-YFP-slc26a3 cells were plated in 96-well black-walled, clear-bottom tissue culture plates (Corning Life Sciences, Tewksbury, MA) at a density of 20,000 cells/well and cultured for 48 hours until confluent. For screening, cells were washed twice in PBS and incubated for 10 min in 100 µl PBS containing test compounds prior to assay of slc26a3 function. Assays were done using a FLUOstar OMEGA plate reader (BMG Labtech, Cary, NC) over 12 s with initial fluorescence recorded over 1 s prior to addition of 100 µl NaI-substituted PBS (137 mM NaCl replaced by 137 mM NaI) to drive Cl^-/I^- exchange. The initial rate of Cl^-/I^- exchange was determined from fluorescence intensity by single exponential regression. All plates contained wells with negative (1 % DMSO) and positive (350 µM niflumic acid) controls.\nScreening was done using an FRT cell line stably expressing murine slc26a3 and a halide-sensitive yellow fluorescent protein (FRT-YFP- slc26a3 cells). FRT cells were used because of their low intrinsic permeability to anions that are transported by slc26a3, and because of their good adherence and rapid growth on uncoated plastic. As diagrammed in FIG. 1A, slc26a3-mediated transport was assayed from the kinetics of YFP fluorescence quenching in response to extracellular addition of I^- to drive Cl^-/I^- exchange; transport inhibition reduces the rate of fluorescence decrease."}, "[1]": {"test": "Pharmacokinetics in mice, serum LC/MS", "assay_type": "in vivo", "procedure": "Pharmacokinetics of the Compound A1(DRAinh-A250) and analogs (DRAinh-A260 and DRAinh-A270) was determined in mice. After single dose intraperitoneal or oral administration (5 mg/kg for Compound A1 and DRAinh-A260, 10 mg/kg for DRAinh-A270), blood samples were collected via retro-orbital puncture at different time points and serum was separated by centrifugation. Compound concentrations were measured in serum using LC/MS. FIGS. 10A, 10B, 10C show the respective serum concentration of Compound A1 (FIG. 10A), DRAinh-A260 (FIG. 10B) and DRAinh-A270 (FIG. 10C) after single oral or intraperitoneal administration at zero time (n=3 mice per compound per administration route). Compound A1 had predicted therapeutic levels for at least 24 hours after single dose oral or intraperitoneal administration. […] (mean±SEM): 53.9±6.5% for Compound A1, 16.4±6.6% for DRAinh-A260, and 39.3±3.5% for DRAinh-A270."}, "[2]": {"test_system": "loperamide-treated wild-type mice", "test": "Loperamide-induced constipation model in wild-type mice", "assay_type": "in vivo", "details": "5 mg/kg oral gavage 1 hour before loperamide, wild-type mice", "procedure": "Female CD1 mice (age 8-10 weeks) were administered loperamide (0.3 mg/kg, intraperitoneally, Sigma-Aldrich) to produce constipation. Compound A1 (DRAinh-A250) (5 mg/kg, in saline containing vehicle (5% DMSO and 10% Kolliphor HS 15; Sigma-Aldrich)), tenapanor (5 mg/kg, in vehicle), both compounds (5 mg/kg each, in vehicle), or vehicle alone were administered by oral gavage 1 hour before loperamide. After loperamide injection, mice were placed individually in metabolic cages with ad libitum access to food and water. Stool samples were collected for 3 h, and total stool weight and number of fecal pellets were quantified. To measure stool water content, stool samples were dried at 80° C. for 24 h and water content was calculated as [wet weight-dry weight]/wet weight. Similar studies were done in cystic fibrosis (CF) mice (ΔF508 homozygous) lacking functional CFTR.\nConstipation Model in MiceDRAinh-A260 and DRAinh-A270 were tested in a loperamide-induced constipation model in mice. Female CD1 mice (age 8-10 weeks) were administered loperamide (0.3 mg/kg, intraperitoneally, in 5% ethanol in PBS, 0.1 mg/mL final concentration) to produce constipation and vehicle in control mice. DRAinh-A260 (5 mg/kg, in saline with 5% DMSO and 10% Kolliphor HS 15) or DRAinh-A270 (1, 3 or 10 mg/kg, in PBS with 5% DMSO and 20% (2- hydroxypropyl)-β-cyclodextrin) or vehicle alone were administered by oral gavage 1 hour before loperamide (FIG. 11A). After loperamide injection, mice were placed individually in metabolic cages with free access to food and water. Stool samples were collected for 3 hours, and total stool weight and number of fecal pellets were quantified. To measure stool water content, stool samples were dried at 80° C. for 24 hours and water content was calculated as [wet weight-dry weight]/wet weight."}, "[3]": {"details": "representative Class A compounds, Table 3, read-out: IC50"}}, "note": "“Also recorded” adds a separate entry of the source. Read-outs that look alike come from different tables or passages of the source."}
{"smiles": "Cc1c(CC(=O)O)c(=O)oc2c(C)c(OCc3ccc(Cl)c(Cl)c3)ccc12", "note": "[Compound A7]", "values": [{"measurement": "IC50", "setting": "murine slc26a3; selected class A analogs, Table 1, Cl-/I- exchange, read-out: IC50", "result": 1.8, "unit": "µM"}]}
{"smiles": "Cc1c(CC(=O)O)c(=O)oc2c(C)c(OCc3cccc([N+](=O)[O-])c3)ccc12", "note": "[Compound A253]", "values": [{"measurement": "IC50", "setting": "murine slc26a3; [3]", "result": 0.5, "unit": "µM"}]}
{"smiles": "Cc1c(CC(=O)O)c(=O)oc2c(C)c(OCc3cccc(C4CC4)c3)ccc12", "note": "[Compound A261]", "values": [{"measurement": "IC50", "setting": "murine slc26a3; [3]", "result": 0.07, "unit": "µM"}]}
{"smiles": "Cc1c(CC(=O)O)c(=O)oc2c(C)c(OCc3cc(C(F)(F)F)cc(C(F)(F)F)c3)ccc12", "note": "[Compound A263]", "values": [{"measurement": "IC50", "setting": "murine slc26a3; [3]", "result": 15, "unit": "µM"}]}
{"smiles": "Cc1c(CC(=O)O)c(=O)oc2c(C)c(OCc3cc(C(F)(F)F)ccc3F)ccc12", "note": "[Compound A266]", "values": [{"measurement": "IC50", "setting": "murine slc26a3; [3]", "result": 0.1, "unit": "µM"}]}
{"smiles": "Cc1c(CC(=O)O)c(=O)oc2c(C)c(OCc3ccccc3I)ccc12", "note": "[Compound A269]", "values": [{"measurement": "IC50", "setting": "murine slc26a3; [3]", "result": 4.5, "unit": "µM"}]}
{"smiles": "CCCCCCOc1ccc2c(C)c(CC(=O)O)c(=O)oc2c1C", "note": "[Compound A278]", "values": [{"measurement": "IC50", "setting": "murine slc26a3; [3]", "result": 1.5, "unit": "µM"}]}
{"smiles": "Cc1c(CC(=O)O)c(=O)oc2c(C)c(OC3CCCC3)ccc12", "note": "[Compound A279]", "values": [{"measurement": "IC50", "setting": "murine slc26a3; [3]", "result": 4.5, "unit": "µM"}]}
{"smiles": "Cc1c(CC(=O)O)c(=O)oc2c(C)c(OCC3CCC3)ccc12", "note": "[Compound A280]", "values": [{"measurement": "IC50", "setting": "murine slc26a3; [3]", "result": 3.4, "unit": "µM"}]}
{"smiles": "Cc1c(CC(=O)O)c(=O)oc2c(C)c(OCC3CCCC3)ccc12", "note": "[Compound A281]", "values": [{"measurement": "IC50", "setting": "murine slc26a3; [3]", "result": 1.8, "unit": "µM"}]}
{"smiles": "Cc1c(CC(=O)O)c(=O)oc2c(C)c(OCc3ccc(C(F)(F)F)o3)ccc12", "note": "[Compound A286]", "values": [{"measurement": "IC50", "setting": "murine slc26a3; [3]", "result": 0.3, "unit": "µM"}]}
{"smiles": "Cc1c(CC(=O)O)c(=O)oc2c(C)c(OCc3cccc(C(F)(F)F)c3)ccc12", "note": "[DRAinh-A260]", "values": [{"measurement": "oral bioavailability", "setting": "[1]; 5 mg/kg (A1, A260) or 10 mg/kg (A270), mice", "result": 16, "unit": "%"}, {"measurement": "serum level time course", "setting": "[1]; 5 mg/kg single dose oral or intraperitoneal", "result": "high serum levels initially; also recorded: almost complete disappearance of compound from serum at 16 hours"}, {"measurement": "bioavailability", "setting": "[1]; mouse, serum, po, 5 mg/kg (A1, A260) or 10 mg/kg (A270), mice, n=3, read-out: oral bioavailability (mean±SEM)", "result": "16.4 ± 6.6", "unit": "%"}, {"measurement": "IC50", "setting": "murine slc26a3; [3]", "result": 0.025, "unit": "µM"}, {"measurement": "three-hour stool weight, number of pellets and stool water content", "setting": "[2]", "result": "improving stool weight, pellet number and water content; also recorded: improves 3-hour stool weight, pellet number and water content"}]}
{"smiles": "O=C(O)c1cccnc1Nc1cccc(C(F)(F)F)c1", "note": "[niflumic acid, reference compound]", "values": [{"measurement": "inhibition of slc26a3, positive control", "setting": "murine slc26a3; 350 µM", "result": "strongly inhibited"}, {"measurement": "IC50", "setting": "murine slc26a3; read-out: IC50 for inhibition of slc26a3-mediated Cl-/I- exchange", "result": "~60", "unit": "µM"}]}
